The values that follow come from patent US20110230476A1, “PI3 KINASE INHIBITORS AND USES THEREOF” (AVILA THERAPEUTICS, INC., priority 2009, published 2011).

pEC50, pIC50: −log10 of the molar value. Entries after “also recorded” stand apart in the source; their conditions may differ. Bounds are passed on as bounds.

For assay [1], the target named is PI3Kα (Homo sapiens, UniProt P42336). The assay can be described thus: Mass spectrometry of intact PI3Kα (Millipore, 14-602), 1 hr incubation. The following applies: 10× fold excess of compound, MALDI. Format: binding. On the set-up: purchased Millipore 14-602. Here is the method:
Mass Spectrometry for PI3K
Aliquots (5 μl) of the samples were diluted with 15 μl of 0.2% TFA prior to micro C4 ZipTipping directly onto the MALDI target using Sinapinic acid as the desorption matrix (10 mg/ml in 0.1% TFA:Acetonitrile 50:50).

The target of assay [2] is T1, PI3Kβ (p110β/p85α) (Homo sapiens, UniProt P42338).
T1 construct: purchased BPS Bioscience (San Diego, Calif.) or Millipore (Billerica, Mass.)
T1 sequence (P42338 whole entry): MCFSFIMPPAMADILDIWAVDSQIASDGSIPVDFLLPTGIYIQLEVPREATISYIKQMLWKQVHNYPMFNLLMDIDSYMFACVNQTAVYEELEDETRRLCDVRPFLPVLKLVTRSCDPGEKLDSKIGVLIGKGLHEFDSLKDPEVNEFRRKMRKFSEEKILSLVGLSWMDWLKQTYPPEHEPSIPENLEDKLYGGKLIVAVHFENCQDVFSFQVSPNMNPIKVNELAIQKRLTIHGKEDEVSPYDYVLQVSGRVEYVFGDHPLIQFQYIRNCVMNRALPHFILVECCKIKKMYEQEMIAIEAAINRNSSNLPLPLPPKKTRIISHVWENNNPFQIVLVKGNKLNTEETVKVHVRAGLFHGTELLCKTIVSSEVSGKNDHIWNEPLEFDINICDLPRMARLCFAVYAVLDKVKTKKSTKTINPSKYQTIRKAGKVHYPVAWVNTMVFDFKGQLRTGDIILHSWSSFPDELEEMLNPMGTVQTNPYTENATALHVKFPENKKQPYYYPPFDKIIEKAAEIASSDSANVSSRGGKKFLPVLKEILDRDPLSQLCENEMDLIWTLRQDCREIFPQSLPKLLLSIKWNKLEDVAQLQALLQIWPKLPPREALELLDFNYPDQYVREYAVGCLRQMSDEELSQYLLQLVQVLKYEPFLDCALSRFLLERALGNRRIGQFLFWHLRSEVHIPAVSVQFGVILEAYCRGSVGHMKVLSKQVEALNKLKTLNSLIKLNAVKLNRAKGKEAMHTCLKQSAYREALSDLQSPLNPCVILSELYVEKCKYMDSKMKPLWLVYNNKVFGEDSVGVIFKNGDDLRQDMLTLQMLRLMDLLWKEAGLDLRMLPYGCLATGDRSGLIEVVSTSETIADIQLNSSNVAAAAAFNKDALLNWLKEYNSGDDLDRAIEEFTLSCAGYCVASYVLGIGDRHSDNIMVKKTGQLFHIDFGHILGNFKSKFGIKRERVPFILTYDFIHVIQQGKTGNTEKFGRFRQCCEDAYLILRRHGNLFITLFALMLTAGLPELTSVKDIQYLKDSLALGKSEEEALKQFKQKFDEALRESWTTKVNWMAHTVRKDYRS
T1 sequence (P27986 whole entry partner): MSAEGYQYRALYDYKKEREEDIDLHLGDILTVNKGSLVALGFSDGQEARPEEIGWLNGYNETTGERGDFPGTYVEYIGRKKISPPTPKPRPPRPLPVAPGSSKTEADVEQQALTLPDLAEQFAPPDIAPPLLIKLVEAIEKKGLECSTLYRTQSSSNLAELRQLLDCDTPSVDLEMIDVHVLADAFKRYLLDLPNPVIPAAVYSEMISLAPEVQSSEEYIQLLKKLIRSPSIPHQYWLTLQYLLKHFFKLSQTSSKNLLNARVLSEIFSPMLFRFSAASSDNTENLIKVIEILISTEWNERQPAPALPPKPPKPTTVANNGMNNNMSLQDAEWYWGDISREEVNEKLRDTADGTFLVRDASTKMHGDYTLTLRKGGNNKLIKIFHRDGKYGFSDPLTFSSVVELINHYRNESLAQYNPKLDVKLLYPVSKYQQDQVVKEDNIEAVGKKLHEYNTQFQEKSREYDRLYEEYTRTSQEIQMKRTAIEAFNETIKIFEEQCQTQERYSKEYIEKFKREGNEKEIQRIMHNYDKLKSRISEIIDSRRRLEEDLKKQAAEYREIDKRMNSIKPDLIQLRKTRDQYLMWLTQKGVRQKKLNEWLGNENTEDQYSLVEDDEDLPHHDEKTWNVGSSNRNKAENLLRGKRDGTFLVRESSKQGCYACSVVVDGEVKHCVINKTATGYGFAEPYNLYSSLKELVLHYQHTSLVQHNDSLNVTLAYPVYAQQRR
The assay can be described thus: HTRF assay, potency against active PI3Kβ. The assay is classed as biochemical. The conditions noted are these: [ATP]=50 μM, [di-C8-PIP2]=10 μM, 30 min pre-incubation, read-out: PI3Kβ Inhibition. In outline: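 Active p110/p85α lipid kinase reactions were started with ATP and run 30-60 minutes at 25 °C, then stopped and developed with HTRF detection mix. HTRF ratio converted to % inhibition against ±enzyme controls; IC50 from log[inhibitor] vs response, variable slope.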
Background: TR-FRET usually uses a lanthanide donor and a delayed reading to cut background.

Assay [3] concerns Phospho-Akt(Ser473). The assay can be described thus: Dose response in SKOV3 cells as determined by in-cell Western. The assay is classed as cell-based. The following applies: Homo sapiens, SK-OV-3. In outline: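 SKOV3 cells treated with compound for 1 hr, then formaldehyde-fixed, permeabilised and stained overnight for phospho-Akt(Ser473) with anti-tubulin as a reference. Infrared secondary antibodies read at 680 and 800 nm channels by in-cell Western imaging.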

Assay [4] concerns Phospho-Akt(Ser473). The assay can be described thus: Dose response in SKOV3 cells as determined by Western blot. The assay is classed as cell-based. The following applies: Homo sapiens, SK-OV-3, 1 hr, Phospho-Akt normalized to total Akt, read-out: Immunoblot. The gist of the method: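 SKOV3 cells in DMEM/10% FBS were treated with compound in 0.1% DMSO for 1 hr, then lysed. 50 ug protein was immunoblotted for Phospho-Akt(Ser473) and total Akt with fluorescent read-out. Phospho-Akt was normalized to total Akt and expressed as percent of untreated signal.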

In assay [5] the test system is SK-OV-3 cells. The assay can be described thus: SK-OV-3 cell proliferation assay. The conditions noted are these: Homo sapiens; SK-OV-3 proliferation, 72 hours, Cell Titer Glo. Format: cell-based. On the procedure:
SK-OV-3 Cell Proliferation Assay
For the SK-OV-3 proliferation Assay, 5000 cells per well were plated in Growth Media (DMEM, 10% FBS, 1% 1-glutamine, 1% penicillin/streptomycin) in 96 well plates. The following day, compounds were added to duplicate wells at concentrations of 10 uM and 3-fold dilutions down to 40 nM. The plates were returned to the incubator for 72 hours and then the assays were developed using Cell Titer Glo (Promega, Madison, Wis.) according to manufacturer's instructions.

Where [6] appears, read: SKOV3 cells, 1 hr, read-out: pAKT Inhibition in cell Western.

PI3Kα, sequence (P42336 whole entry): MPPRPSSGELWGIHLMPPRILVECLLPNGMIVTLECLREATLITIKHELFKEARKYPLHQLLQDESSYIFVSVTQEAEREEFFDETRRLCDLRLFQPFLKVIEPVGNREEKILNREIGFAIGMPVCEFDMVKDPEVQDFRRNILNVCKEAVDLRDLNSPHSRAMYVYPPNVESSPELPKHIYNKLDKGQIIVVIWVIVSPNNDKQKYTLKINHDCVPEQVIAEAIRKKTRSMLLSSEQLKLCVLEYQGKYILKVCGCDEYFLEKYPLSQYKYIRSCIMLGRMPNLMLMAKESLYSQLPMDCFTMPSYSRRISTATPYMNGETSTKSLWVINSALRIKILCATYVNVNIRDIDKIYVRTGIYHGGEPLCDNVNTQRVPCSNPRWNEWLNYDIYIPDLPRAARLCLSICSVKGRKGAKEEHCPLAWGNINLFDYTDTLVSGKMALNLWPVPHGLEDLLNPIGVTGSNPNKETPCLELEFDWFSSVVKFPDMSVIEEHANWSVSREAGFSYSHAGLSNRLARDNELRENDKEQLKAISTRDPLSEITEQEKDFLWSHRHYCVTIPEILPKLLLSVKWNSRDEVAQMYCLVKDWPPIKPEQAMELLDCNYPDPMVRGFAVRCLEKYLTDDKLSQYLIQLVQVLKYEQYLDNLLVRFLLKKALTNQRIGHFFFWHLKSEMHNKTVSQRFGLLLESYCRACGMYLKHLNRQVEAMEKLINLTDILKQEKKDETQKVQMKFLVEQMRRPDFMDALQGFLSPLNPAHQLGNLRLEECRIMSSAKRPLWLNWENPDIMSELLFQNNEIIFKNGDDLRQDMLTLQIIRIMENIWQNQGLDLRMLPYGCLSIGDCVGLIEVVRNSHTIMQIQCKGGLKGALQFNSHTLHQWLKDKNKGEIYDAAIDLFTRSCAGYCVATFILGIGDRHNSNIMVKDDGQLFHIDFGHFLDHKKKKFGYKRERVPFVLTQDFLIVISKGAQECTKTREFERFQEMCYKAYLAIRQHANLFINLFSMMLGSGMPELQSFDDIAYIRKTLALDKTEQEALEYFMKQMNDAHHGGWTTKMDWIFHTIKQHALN
PI3Kα, sequence (P27986 whole entry partner): as the sequence (P27986 whole entry partner) above

Regarding `CC(C)=CC(=O)CCC(=O)N1CCN(Cc2cc3nc(-c4cccc5[nH]ncc45)nc(N4CCOCC4)c3s2)CC1` [II-a-3, 1-(4-((2-(1H-indazol-4-yl)-4-morpholinothieno[3,2-d]pyrimidin-6-yl)methyl)piperazin-1-yl)-6-methylhept-5-ene-1,4-dione], the “covalent modification of PI3Kα” value in assay [1] is listed as “complete modification; also recorded: covalent modification”. In addition, in assay [2], the pIC50 is less than 6.00. The pEC50 in assay [3] (setting [6]) is no less than 8.00; in assay [3] (Table 19, assay not given, classes agree with Table 23, read-out: EC50 pAkt^Ser473) it was no less than 8.00; in assay [4], 7.00 to 8.00.

For the molecule `C/C=C/C(=O)CCC(=O)N1CCN(Cc2cc3nc(-c4cccc5[nH]ncc45)nc(N4CCOCC4)c3s2)CC1` [II-a-36, (E)-1-(4-((2-(1H-indazol-4-yl)-4-morpholinothieno[3,2-d]pyrimidin-6-yl)methyl)piperazin-1-yl)hept-5-ene-1,4-dione], the pEC50 in assay [5] was 6.00 to 7.00; in assay [3] (setting [6]), 6.00 to 7.00; in assay [4] it was 7.00 to 8.00. In addition, the pIC50 in assay [2] is less than 6.00.
